According to US20260256769A1, “ARTERIOSCLEROSIS SUPPRESSION THROUGH INHIBITION OF TRANSCRIPTION FACTOR FoxO1” (TEIKYO UNIVERSITY, priority 2022, published 2026):

How the values were obtained:
[1] = system: bone marrow-derived macrophages; test: CD11c on the cell surface of bone marrow-derived macrophages by flow cytometry; format: cell-based, mice; settings: vs DMSO-treated control group
Procedure: Next, we assumed that the transcription factor that binds to the nucleotide sequence of the determined region as above was FoxO1, and a FoxO1 inhibitor AS1842856 was administered to the bone marrow-derived macrophages respectively collected from Syk gene-deficient mice (Syk^del/del) and wild-type mice (Syk^+/+), and CD11c on the cell surface was measured by flow cytometry.

[2] = system: atherosclerosis lesions in the aortic sinus; test: Atherosclerosis lesions in the aortic sinus evaluated using HE staining; format: in vivo; settings: wild-type mice (Syk+/+), 20 mg/kg intraperitoneally for 8 weeks, vs DMSO-treated group
Procedure: Next, after the FoxO1 inhibitor AS1842856 (20 mg/kg) was intraperitoneally administered to wild-type mice (Syk^+/+) for 8 weeks, atherosclerosis lesions in the aortic sinus were evaluated using HE staining.

[3] = system: peripheral blood monocytes (CD115 positive cells); test: CD11c expression (%) in peripheral blood monocytes (CD115 positive cells) by flow cytometry after intraperitoneal administration; format: in vivo; settings: wild-type mice, 20 mg/kg intraperitoneally for 2 weeks, vs DMSO-treated group
Procedure: (§1) In this Example, the following experiment was carried out. First, the FoxO1 inhibitor AS1842856 (20 mg/kg) was intraperitoneally administered to Syk gene-deficient mice (Syk^del/del) and wild-type mice (Syk^+/+) for 2 weeks. The expression of CD11c in collected bone marrow monocytes was measured by real-time PCR, and the CD11c expression (%) in peripheral blood monocytes (CD115 positive cells) was measured by flow cytometry. CD115 is a monocyte marker.

bone marrow monocytes = test: CD11c expression in bone marrow monocytes by real-time PCR after intraperitoneal administration; format: in vivo; settings: wild-type mice, 20 mg/kg intraperitoneally for 2 weeks, vs DMSO-treated group
Procedure: as §1

CCn1cc(C(=O)O)c(=O)c2c(N)c(F)c(NC3CCCCC3)cc21 [AS1842856, 5-amino-7-(cyclohexylamino)-1-ethyl-6-fluoro-4-oxo-1,4-dihydroquinoline-3-carboxylic acid]
expression of CD11c on the cell surface ([1]; bone marrow-derived macrophages from Syk gene-deficient mice (Syk del/del)): no significant difference | expression of CD11c on the cell surface ([1]; bone marrow-derived macrophages from wild-type mice (Syk+/+)): significantly decreased | atherosclerosis lesions in the aortic sinus [2]: Atherosclerosis was suppressed | CD11c/CD115 ratio in peripheral blood monocytes [3]: significantly decreased | CD11c expression in bone marrow monocytes (bone marrow monocytes): significantly decreased
